Data as given in US9206161B2, “Bridged bicyclic heteroaryl substituted triazoles useful as Axl inhibitors” (Rigel Pharmaceuticals, Inc., priority 2008, dated 2015).

Biological target: T1, Axl (Homo sapiens, UniProt P30530)
T1 construct: endogenous in cells; host or cells: HeLa cells
T1 sequence (P30530 26-894): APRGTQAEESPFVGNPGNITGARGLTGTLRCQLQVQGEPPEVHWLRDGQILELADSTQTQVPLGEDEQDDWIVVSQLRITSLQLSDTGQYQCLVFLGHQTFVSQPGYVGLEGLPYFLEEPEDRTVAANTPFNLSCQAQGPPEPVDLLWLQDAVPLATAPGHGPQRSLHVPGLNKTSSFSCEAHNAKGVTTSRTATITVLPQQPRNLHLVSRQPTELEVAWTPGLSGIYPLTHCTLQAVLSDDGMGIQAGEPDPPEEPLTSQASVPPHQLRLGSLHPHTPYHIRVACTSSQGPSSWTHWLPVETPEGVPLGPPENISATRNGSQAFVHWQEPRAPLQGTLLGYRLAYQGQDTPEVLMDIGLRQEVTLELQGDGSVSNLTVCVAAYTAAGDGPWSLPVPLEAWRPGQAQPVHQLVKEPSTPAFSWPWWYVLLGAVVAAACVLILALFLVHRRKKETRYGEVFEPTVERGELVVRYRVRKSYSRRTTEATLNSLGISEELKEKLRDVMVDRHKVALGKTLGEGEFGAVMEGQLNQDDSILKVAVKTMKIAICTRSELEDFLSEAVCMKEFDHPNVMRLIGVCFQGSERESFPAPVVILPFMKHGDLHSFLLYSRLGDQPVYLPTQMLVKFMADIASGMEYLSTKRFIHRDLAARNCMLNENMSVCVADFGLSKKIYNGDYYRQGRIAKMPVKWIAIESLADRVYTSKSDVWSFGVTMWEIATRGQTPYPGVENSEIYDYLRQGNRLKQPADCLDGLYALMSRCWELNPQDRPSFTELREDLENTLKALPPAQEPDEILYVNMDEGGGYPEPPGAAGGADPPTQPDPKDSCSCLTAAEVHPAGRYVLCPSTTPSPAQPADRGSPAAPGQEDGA
Test: Phospho-Akt in-cell Western assay
Type: cell-based
Settings: Hela cells, Axl antibody cross-linking stimulation, phospho-Akt readout
Method: Phospho-Akt in-Cell Western Assay
The compounds of the invention were tested in the following assay for their ability to inhibit Axl activity.
• Cell culture plate: 96 well assay plate (Corning 3610), white, clear bottom, tissue-culture treated. • Cells: Hela cells. • Starvation medium: For Axl stimulation: 0.5% FCS (fetal calf serum) in DMEM, plus Axl/Fc (extracellular domain of AXL fused to immunoglobulin Fc region) (R&D, 154-AL) 500 ng/mL. • For EGF (epidermal growth factor) stimulation: 0.5% FCS in DMEM (Dulbecco's modified Eagles medium). • Poly-L-Lysine 0.01% solution (the working solution): 10 μg/ml, dilute In PBS (phosphate buffered saline). • Axl antibody cross-linking: • 1st: Mouse anti-Axl (R&D, MAB154). • 2nd: Biotin-SP-conjugated AffiniPure goat anti-mouse IgG (H+L) (Jackson ImmunoResearch #115-065-003). • Fixing buffer: 4% formaldehyde in PBS. • Wash buffer: 0.1% TritonX-100 in PBS. • Quenching buffer: 3% H2O2, 0.1% Azide in wash buffer, Azide and hydrogen peroxide (H2O2) are added fresh. • Blocking buffer: 5% BSA in TBST (tris buffered saline plus 0.1% Tween 20). • Primary antibody: Rabbit anti-human Phospho-Akt antibody (Cell Signaling 9271): 1×250 diluted in blocking buffer. • Secondary antibody: HRP (horse radish peroxidase)-conjugated Goat anti-Rabbit secondary, stock solution: Jackson ImmunoResearch (Goat anti-Rabbit HRP, #111-035-144) 1:1 diluted in glycerol, store at −20° C. The working solution: 1×2000 dilution of stock in blocking buffer. • Chemiluminescent working solution (Pierce, 37030): SuperSignal ELISA (enzyme linked immunosorbant assay) Pico Chemiluminescent substrate. • Crystal Violet solution: Stock: 2.5% Crystal violet in methanol, filtered and kept at ambient temperature. The working solution: dilute the stock 1:20 with PBS immediately before use. • 10% SDS: working solution: 5% SDS (sodium dodecylsulfate), diluted in PBS Methods: Day 1:
A 96 well TC (tissue culture treated) plate was coated with 10 μg/mL poly-L-Lysine at 37° C. for 30 min, washed twice with PBS, and air-dried for 5 minutes before cells were added. Hela cells were seeded at 10,000 cells/well and the cells were starved in 100 μL starvation medium containing Axl/Fc for 24 hrs.
The cells were pre-treated with test compounds by adding 100 μL of 2× test compound to the starvation medium on the cells. The cells were incubated at 37° C. for 1 hr before stimulation.
The cells were stimulated by Axl-antibody cross-linking as follows: A 5×1st/2nd Axl antibody mixture was made (37.5 μg/mL 1st/100 μg/mL 2nd) in starvation medium and nutated at 4° C. with thorough mixing for 1-2 hours for clustering. The resulting mix was warmed to 37° C. 50 μL of 5× Axl 1st/2nd of antibody cluster was added to the cells and the cells were incubated at 37° C. for 5 min.
After 5 minutes stimulation, the plate was flicked to remove medium and the plate was tapped onto paper towels. Formaldehyde (4.0% in PBS, 100 μL) was added to fix the cells and the cells were incubated at ambient temperature for 20 min without shaking.
The cells were washed with a plate washer buffer to remove the formaldehyde solution. The plate was flicked to removed excess wash buffer and tapped onto paper towels. Quenching buffer (100 μL) was added to each well and the cells were incubated at ambient temperature for 20 minutes without shaking.
The cells were washed with a plate washer buffer to remove the quenching buffer. Blocking buffer (100 μL) was added and the cells were incubated at ambient temperature for at least an hour with gentle shaking.
The cells were washed with a plate washer buffer and diluted primary antibody (50 μL) was added to each well (blocking buffer was added to the negative control wells instead). The plates were incubated overnight at 4° C. with gentle shaking.
The wash buffer was removed, diluted secondary antibody (100 μL) was added, and the cells were incubated at ambient temperature for 1 hour with gentle shaking. […]

Q: With `Nc1nc(Nc2ccc3c(c2)CCC(N2CCCC2)CC3)nn1-c1nnc(Cl)c2c1C1CCC2CC1` (centres unmarked) [Compound 27, 1-(4-chloro-5,8-ethano-5,6,7,8-tetrahydrophthalazine-1-yl)-N^3-(7-(pyrrolidin-1-yl)-6,7,8,9-tetrahydro-5H-benzo[7]annulene-2-yl)-1H-1,2,4-triazole-3,5-diamine] as the molecule, how does the IC50 (Table 8, formula (VI)) read?
A: < 1000 nM

Q: For `N#Cc1cccc(-c2nnc(-n3nc(Nc4ccc5c(c4)CCC(N4CCCC4)CC5)nc3N)c3c2C2CCC3CC2)c1` (centres unmarked) [Compound 31, 1-(4-(3-cyanophenyl)-5,8-ethano-5,6,7,8-tetrahydrophthalazine-1-yl)-N^3-(7-(pyrrolidin-1-yl)-6,7,8,9-tetrahydro-5H-benzo[7]annulene-2-yl)-1H-1,2,4-triazole-3,5-diamine], which IC50 (Table 8, formula (VI)) is on record?
A: < 1000 nM

Q: Which IC50 (Table 5, formula (IVa)) does the source give for `Cc1cccc(-c2nnc(-n3nc(Nc4ccc(N5CCC(N6CCCC6)CC5)c(F)c4)nc3N)c3c2C2CCC3CC2)c1` [Compound 19, 1-(4-(3-methylphenyl)-5,8-ethano-5,6,7,8-tetrahydrophthalazine-1-yl)-N^3-(4-(4-(pyrrolidin-1-yl)piperidinyl)-3-fluorophenyl)-1H-1,2,4-triazole-3,5-diamine] here?
A: 1000 to 10000 nM

Q: `C[C@H]1CN(c2ccc(Nc3nc(N)n(-c4nnc(-c5ccncc5)c5c4C4CCC5CC4)n3)cn2)CCN1CC1CC1` [Compound 24, (3S)-1-(4-(pyridin-4-yl)-5,8-ethano-5,6,7,8-tetrahydrophthalazine-1-yl)-N^3-(6-(4-(cyclopropylmethyl)-3-methylpiperazin-1-yl)pyridin-3-yl)-1H-1,2,4-triazole-3,5-diamine] was tested. Which IC50 (Table 7, formula (V)) did it give?
A: 1000 to 10000 nM

Q: With `Nc1nc(Nc2ccc(N3CCC(N4CCCC4)CC3)c(F)c2)nn1-c1nnc(Cl)c2c1C1CCC2CC1` [Compound 13, 1-(4-chloro-5,8-ethano-5,6,7,8-tetrahydrophthalazine-1-yl)-N^3-(4-(4-(pyrrolidin-1-yl)piperidinyl)-3-fluorophenyl)-1H-1,2,4-triazole-3,5-diamine] as the molecule, how does the IC50 (Table 5, formula (IVa)) read?
A: < 1000 nM

Q: With `C[C@H]1CN(c2ccc(Nc3nc(N)n(-c4nnc(-c5ccccc5)c5c4C4CCC5CC4)n3)cn2)CCN1CC1CC1` [Compound 21, (3S)-1-(4-phenyl-5,8-ethano-5,6,7,8-tetrahydrophthalazine-1-yl)-N^3-(6-(4-(cyclopropylmethyl)-3-methylpiperazin-1-yl)pyridin-3-yl)-1H-1,2,4-triazole-3,5-diamine] as the molecule, how does the IC50 (Table 7, formula (V)) read?
A: 1000 to 10000 nM

Q: With `Cc1cccc(-c2nnc(-n3nc(Nc4ccc5c(c4)CCC(N4CCCC4)CC5)nc3N)c3c2C2CCC3CC2)c1` (centres unmarked) [Compound 30, 1-(4-(3-methylphenyl)-5,8-ethano-5,6,7,8-tetrahydrophthalazine-1-yl)-N^3-(7-(pyrrolidin-1-yl)-6,7,8,9-tetrahydro-5H-benzo[7]annulene-2-yl)-1H-1,2,4-triazole-3,5-diamine] as the molecule, how does the IC50 (Table 8, formula (VI)) read?
A: < 1000 nM

Q: `Nc1nc(Nc2cnc3c(c2)CNCC3)nn1-c1cc(-c2ccccc2)c2c(n1)C1CCN2CC1` [Compound 2, 1-(1,4-ethano-8-phenyl-1,2,3,4-tetrahydro-1,5-naphthyridin-6-yl)-N^3-(5,6,7,8-tetrahydro-1,6-naphthyridine-3-yl)-1H-1,2,4-triazole-3,5-diamine] was tested. Which IC50 (Table 2, formula (Ib)) did it give?
A: < 1000 nM

Q: With `Nc1nc(Nc2ccc(N3CCC(N4CCCC4)CC3)c(F)c2)nn1-c1cc(-c2ccc(F)cc2)c2c(n1)C1CCN2CC1` [Compound 8, 1-(1,4-ethano-8-(4-fluorophenyl)-1,2,3,4-tetrahydro-1,5-naphthyridin-6-yl)-N^3-(4-(4-(pyrrolidin-1-yl)piperidinyl)-3-fluorophenyl)-1H-1,2,4-triazole-3,5-diamine] as the molecule, how does the IC50 (Table 3, formula (II)) read?
A: < 1000 nM

Q: `Nc1nc(Nc2ccc3c(c2)CCC(N2CCCC2)CC3)nn1-c1nnc(-c2ccncc2)c2c1C1CCC2CC1` (centres unmarked) [Compound 34, 1-(4-(pyridin-4-yl)-5,8-ethano-5,6,7,8-tetrahydrophthalazine-1-yl)-N^3-(7-(pyrrolidin-1-yl)-6,7,8,9-tetrahydro-5H-benzo[7]annulene-2-yl)-1H-1,2,4-triazole-3,5-diamine] was tested. Which IC50 (Table 8, formula (VI)) did it give?
A: < 1000 nM

Q: `Nc1nc(Nc2cnc3c(c2)CC(NC2CCCC2)CC3)nn1-c1cc(-c2ccccc2)c2c(n1)C1CCN2CC1` (centres unmarked) [Compound 5, 1-(1,4-ethano-8-phenyl-1,2,3,4-tetrahydro-1,5-naphthyridin-6-yl)-N^3-(6-(cyclopentylamino)-5,6,7,8-tetrahydroquinoline-3-yl)-1H-1,2,4-triazole-3,5-diamine] was tested. Which IC50 (Table 1, formula (Ia)) did it give?
A: < 1000 nM

Q: Which IC50 (Table 5, formula (IVa)) does the source give for `Nc1nc(Nc2ccc(N3CCC(N4CCCC4)CC3)c(F)c2)nn1-c1nnc(-c2ccc3c(c2)OCO3)c2c1C1CCC2CC1` [Compound 17, 1-(4-(benzo[d][1,3]dioxol-5-yl)-5,8-ethano-5,6,7,8-tetrahydrophthalazine-1-yl)-N^3-(4-(4-(pyrrolidin-1-yl)piperidinyl)-3-fluorophenyl)-1H-1,2,4-triazole-3,5-diamine] here?
A: < 1000 nM

Q: `Nc1nc(Nc2ccc(N3CCC(N4CCCC4)CC3)c(F)c2)nn1-c1nnc(-c2ccncc2)c2c1C1CCC2CC1` [Compound 18, 1-(4-(pyridin-4-yl)-5,8-ethano-5,6,7,8-tetrahydrophthalazine-1-yl)-N^3-(4-(4-(pyrrolidin-1-yl)piperidinyl)-3-fluorophenyl)-1H-1,2,4-triazole-3,5-diamine] was tested. Which IC50 (Table 5, formula (IVa)) did it give?
A: < 1000 nM

Q: Which IC50 (Table 3, formula (II)) does the source give for `Nc1nc(Nc2ccc(N3CCC(N4CCCC4)CC3)c(F)c2)nn1-c1cc(-c2cccc(C(F)(F)F)c2)c2c(n1)C1CCN2CC1` [Compound 10, 1-(1,4-ethano-8-(3-trifluoromethylphenyl)-1,2,3,4-tetrahydro-1,5-naphthyridin-6-yl)-N^3-(4-(4-(pyrrolidin-1-yl)piperidinyl)-3-fluorophenyl)-1H-1,2,4-triazole-3,5-diamine] here?
A: < 1000 nM
